According to patent US9241928B2, “Antimicrobial compounds” (The General Hospital Corporation, priority 2009, dated 2016):

Experiments:
Assay type in all cases: in vivo, Caenorhabditis elegans
[1] = system: C. elegans infected with E. faecalis; test: Automated infection assay for primary compound screening (SYTOX staining, CELLPROFILER)
Experimental: In general, the area of each well that is SYTOX-positive in the fluorescence image is measured and normalized by the total area occupied by all worms, which is quantified in the bright field image. This typically requires illumination correction to flatten lighting abnormalities, adaptive thresholding, and size- and contrast-based filters and masks to exclude debris and other artifacts. By calculating the ratio of the fluorescent area (which corresponds to the area occupied by dead worms) to the total area occupied by all worms, one can accurately determine the number of dead worms in each well. […] In a well where the worms are rescued by ampicillin treatment, 3 of the 14 worms were dead based on manual scoring. The ratio of the fluorescent area to the area occupied by all worms obtained by the CELLPROFILER analysis is correspondingly low at 0.12.
(§1) glp-4(bn2); sek-1 (km4) mutant worms were grown to gravid adult stage. 1,000 worms at the L1 stage were grown for 5.2 days at 15° C. on 9-cm plates of SK agar media spread with a lawn of E. coli strain HB101. Embryos from the gravid adults were isolated by a previously described hypochlorite method (see Tan et al., (1999) Proc. Natl. Acad. Sci. USA 96, 715-720) and hatched at 15° C. for 2 days. Approximately 4,500 of the Ll hatchlings were grown on each 9-cm plate of SK-NS agar (SK media with 62.5 U/ml nystatin and 100 μg/ml streptomycin) and with lawns of E. coli HB101. These worms were grown at 25° C. for 52 hours to generate sterile, young adults.
(§2) A culture of E. faecalis MMH594 was grown in BHI broth (BD Difco) with 80 μg/ml kanamycin at 37° C. for 6 hours and 100 μl of the culture were spread onto each 9-cm plate of BHI agar containing 80 μg/mlkanamycin. Lawns of E. faecalis were grown at 25° C. for 16 hours and transferred to 15° C. for 8 hours.
(§3) Sterile adult worms were resuspended in M9 buffer and washed twice with M9 in a 1:10 ratio to remove E. coli. 8,000 worms were pipetted onto each lawn of E. faecalis and incubated 15 hours at 15° C. After infection, the worms were resuspended in M9 and used as described below. 384-well plates (Corning #3712) were filled with 55 μl media (see below) using a Thermo Scientific MULTIDROP Combi reagent dispenser. 0.3 μl of a candidate compound in DSMO were pin transferred into each well using a CyBio CYBI-Well vario transfer system. The plates were agitated using an Eppendorf MIXMATE at 1,800 rpm for 15 seconds. Using the Union Biometrica Complex Object Parametric Analyzer and Sorter (COPAS) BIOSORT worm sorter according to manufacturer's protocols, 15 of the infected worms were transferred to each well in a total volume of approximately 15 μl. Total volume per well is 70 μl/well with a final composition of the media being 20% BHI, […], 80 μg/ml kanamycin, 62.5 U/ml nystatin, 1% DMSO, and 19% sheath solution (Union Biometrica Part #300-5101-000). Plates were vortexed for 5 seconds, centrifuged at 1000×g for 10 seconds, and sealed with gas permeable membranes (BREATHEASY Diversified). Plates were placed in a single layer on the top shelves in a 26.3° C. incubator at 85% relative humidity (RH) and incubated without agitation for 5 days.
After 5 days, the bacteria and liquid media in the assay plates were removed as described below. First, the bacteria were re-suspended by shaking on the MIXMATE for 15 seconds at 1,800 rpm, the sealing membrane was removed, and the worms were allowed to settle to the bottom of the wells for 3 minutes. […]

[2] = system: C. elegans infected with E. faecalis; test: Dose response time courses in the C. elegans-E. faecalis infection assay; details: Effective Concentration: survival significantly different from mock-treated, p-value <0.05, logrank; read-out: EC
Experimental: as §1, §2, §3
The dose dependence of certain antimicrobial compounds identified by the assay above were studied. These compounds were purchased in a larger amount from commercial sources. For each of these compounds, an infection assay was performed essentially as described above at different concentrations except that SYTOX staining was not used. Instead, bright-field images of the wells were acquired at daily time points and scored manually for worm survival by analyzing worm body positioning. […] All compounds used in this assays were confirmed for their identity and purity by liquid chromatography/mass spectrometry.

clec-60::GFP = test: Immune GFP reporter induction, transgene agIs26; details: compound-exposed versus DMSO-exposed animals, visual
Excerpt: Caenorhabditis elegans strains were maintained on Escherichia coli OP50 as described in Brenner, Genetics, 1974, 77:71-94. Wildtype N2 nematodes carrying integrated transgenes acIs219 (AU78), acIs101(AY101), agIs17(AU133), or agIs26 (AU185) (see (1) Shivers, et al., PLoS. Genet. 2010, 6: e1000892, (2) Bolz et al., J. Biol. Chem. 2010, 285:10832-40, (3) Estes et al., Proc. Natl. Acad. Sci., 2010, 107:2153-8, and (4) Irazoqui et al., Proc. Natl. Acad. Sci., 2008, 105:17469-74) were used to assay the immunomodulatory activity of candidate compounds. […] Fold change was calculated using the Pfaffl method (see Pfaffl et al., Nucleic Acids Res., 2001, 29:e45).
Without wishing to be bound by theory, it was hypothesized that a subset of these compounds cured nematode infection by directly activating the innate immune response of the animal. […] First, the inventors studied four C. elegans strains in which the promoter of the nematode immune response genes T24B8.5, F35E12.5, irg-1 and clec-60 were individually fused to GFP, generating transgenes acIs219 (AU78), acIs101(AY101), agIs17(AU133), or agIs26 (AU185), respectively, thereby allowing a visual readout of gene activity in each strain. […]

SMILES	curing activity in the primary screen ([1]; primary screen)	retest in secondary screen ([1]; secondary experiment)	minimal effective concentration [2]	immune reporter induction clec-60::GFP (clec-60::GFP)
Cc1ccc(Nc2nc(N)c3ccccc3n2)cc1Cl [Compound 26]	cured infected C. elegans	did not re-test	–	–
NNc1ccc2c(Cl)cc(Cl)c(O)c2n1 [Compound 11]	–	–	0.2 µg/mL	+
